This is an account of results in ChEMBL document CHEMBL3286289, “Synthesis and structure-activity relationship of non-phosphorus-based fructose-1,6-bisphosphatase inhibitors: 2,5-Diphenyl-1,3,4-oxadiazoles” (Eur J Med Chem, 2014).

Test [1] can be described thus: Inhibition of human recombinant FBPase-mediated fructose-6-phosphate formation by coupled spectrophotometric assay.
Test [2] deals with Hepatocyte. Put plainly: Inhibition of gluconeogenesis in Sprague-Dawley rat hepatocytes assessed as decrease in glucose output at 2 mM after 4 hrs by colorimetric assay relative to control. Conditions: values are per cent of control. In kind it is functional.
Test [3] relates to Hepatocyte. Put plainly: Inhibition of gluconeogenesis in Sprague-Dawley rat hepatocytes assessed as decrease in glucose output at 20 uM after 4 hrs by colorimetric assay relative to control. It is filed as functional. Conditions: values are per cent of control.
The test system of test [4] is Hepatocyte. The experiment in a line: Inhibition of gluconeogenesis in Sprague-Dawley rat hepatocytes assessed as decrease in glucose output at 40 uM after 4 hrs by colorimetric assay relative to control. In kind it is functional. The note with it: values are per cent of control.
Test [5] has as its system Hepatocyte. The experiment in a line: Inhibition of gluconeogenesis in Sprague-Dawley rat hepatocytes assessed as decrease in glucose output at 10 uM after 4 hrs by colorimetric assay relative to control. It is filed as functional. Conditions: values are per cent of control.
Test [6] has as its system Hepatocyte. Put plainly: Inhibition of gluconeogenesis in Sprague-Dawley rat hepatocytes assessed as glucose output at 80 to 160 uM after 4 hrs by colorimetric assay. In kind it is functional, cell-based.

Each structure is given as a SMILES string. Active and inactive are the calls of the source. No cut-off for these calls is given here.

Regarding `Nc1ncnc2c1ncn2[C@@H]1O[C@H](COP(=O)(O)O)[C@@H](O)[C@H]1O` [ADENOSINE PHOSPHATE], the IC50 – broadly, the concentration needed to halve the response being measured – in test [1] stood at 1.3 µM.

`Cc1ccc(-c2nnc(-c3cccc(NC(=O)CCCCN4CCOCC4)c3)o2)cc1`: the half-inhibitory concentration (IC50) in test [1] was found to be 5.01 µM.

For the compound `CN(C)C(=N)NC(=N)N` [METFORMIN], the response, % of control at 2000 µM with Hepatocyte [2] is 75%.

For `COc1ccc(CC(=O)Nc2cccc(-c3nnc(-c4ccc(C)cc4)o3)c2)cc1OC`, the response, % of control at 20 µM with Hepatocyte [3] amounted to 93.5%. The response, % of control at 40 µM in the test with Hepatocyte [4] was determined as 103%. Further, the IC50 in test [1] came out at 4.51 µM. In addition, the response, % of control at 10 µM with Hepatocyte [5] came out at 96.7%.

On to `COc1ccc(CC(=O)Nc2cccc(-c3nnc(-c4cccc(Cl)c4)o3)c2)cc1OC`, for which the half-maximal inhibitory concentration (IC50) in test [1] amounted to 15.5 µM.

Turning to `Cc1ccc(-c2nnc(-c3cccc(NC(=O)CCCN4CCOCC4)c3)o2)cc1`, the concentration for half-maximal inhibition (IC50) in test [1] stood at 4.96 µM.

Consider `Cc1ccc(-c2nnc(-c3cccc(NC(=O)CCCCCN4CCOCC4)c3)o2)cc1`, for which the response, % of control at 20 µM with Hepatocyte [3] was 83.6%. For the same compound, the response, % of control at 40 µM in the test with Hepatocyte [4] is 85.2%. Also, in test [1], the IC50 was 2.54 µM. Further, in the test with Hepatocyte [5], the response, % of control at 10 µM was 83.3%. Besides, the inhibition result in the test with Hepatocyte [6] was “inactive”.
